Measurements reported in patent US20250235432A1, “METHODS OF TREATING CANCERS” (Foghorn Therapeutics Inc., priority 2018, published 2025).

Columns and labels:
Format in all cases: cell-based
[1] = system: parental MP41 and PKCi-resistant MP41 uveal melanoma cells; experiment: 7-day growth inhibition assay, parental and PKC inhibitor-resistant cells
Experimental: Procedure: Uveal melanoma cell lines (92-1, MP41, MP38, MP46), prostate cancer cell lines (LNCAP), lung cancer cell lines (NClH1299), and immortalized embryonic kidney lines (HEK293T) were plated into 96 well plates with growth media (see Table 1). […] Cells were incubated at 37° C. for 3 days. After 3 days of treatment, the media was removed from the cells, and 30 microliters of TrypLE (Gibco) was added to cells for 10 minutes. Cells were detached from the plates and resuspended with the addition of 170 microliters of growth media. Cells from two DMSO-treated control wells were counted, and the initial number of cells plated at the start of the experiment, were re-plated into fresh-compound containing plates for an additional four days at 37° C. At day 7, cells were harvested as described above.
On day 3 and day 7, relative cell growth was measured by the addition of Cell-titer glo (Promega), and luminescence was measured on an Envision plate reader (Perkin Elmer).
Procedure: MP41 uveal melanoma cells were made resistant to the PKC inhibitor (LXS196; MedChemExpress), by long-term culture in growth media (see Table 1) containing increasing concentrations of the compound, up to 1 micromolar. After 3 months, sensitivity of the parental MP41 cells and the PKC inhibitor (PKCi)-resistant cells to the PKC inhibitor (LXS196) or the BRG1/BRM ATPase inhibitor (compound 18) was tested in a 7-day growth inhibition assay as described above in Example 2.

[2] = system: uveal melanoma cell lines 92-1 or MP41; experiment: 3-day growth inhibition of uveal melanoma cell lines, comparison to clinical PKC and MEK inhibitors; details: for onset of growth inhibition compared to the clinical PKC and MEK inhibitors: 92-1 or MP41; for growth inhibition of uveal melanoma cells compared to the clinical PKC and MEK inhibitors (LXS196, Selumetinib): 92-1 or MP41, 3 days, 0 to 10 micromolar
Experimental: Procedure: Uveal melanoma cell lines, 92-1 or MP41, were plated in 96 well plates in the presence of growth media (see Table 1). […] Cells were incubated at 37° C. for 3 days. After 3 days of treatment, cell growth was measured with Cell-titer glow (Promega), and luminescence was read on an Envision plate reader (Perkin Elmer).
Procedure: Uveal melanoma cell lines, 92-1 or MP41, were plated in 96 well plates in the presence of growth media (see Table 1). BAF ATPase inhibitor (compound 18), PKC inhibitor (LXS196; MedChemExpress), and MEK inhibitor (Selumetinib; Selleck Chemicals) were dissolved in DMSO and added to the cells in a concentration gradient from 0 to 10 micromolar at the time of plating. Cells were incubated at 37° C. for 3 days. After three days of treatment, cell growth was measured with Cell-titer glow (Promega), and luminescence was read on an Envision plate reader (Perkin Elmer).

[3] = system: uveal melanoma cell lines (92-1, MP41, MP38, MP46); experiment: 3-day growth inhibition of uveal melanoma and non-small cell lung cancer cell lines; details: 3 days, 0 to 10 micromolar, FIG. 5
Experimental: Procedure: Uveal melanoma cell lines (92-1, MP41, MP38, MP46) and non-small cell lung cancer cells (NCl-H1299) were plated into 96 well plates with growth media (see Table 1). BRG1/BRM ATPase inhibitor, compound 18, was dissolved in DMSO and added to the cells in a concentration gradient from 0 to 10 micromolar at the time of plating. Cells were incubated at 37° C. for 3 days. After three days of treatment, cell growth was measured with Cell-titer glow (Promega), and luminescence was read on an Envision plate reader (Perkin Elmer).

SMILES	tolerance of PKCi-resistant cells relative to the parental MP41 cell line ([1]; 7-day assay, FIG. 7A)	onset of growth inhibition compared to the clinical PKC and MEK inhibitors [2]	growth inhibition of uveal melanoma cells compared to the clinical PKC and MEK inhibitors (LXS196, Selumetinib) [2]	growth inhibition in the uveal melanoma cell lines [3]	sensitivity of PKCi-resistant cells relative to parental MP41 cells ([1]; 7-day assay, FIG. 7B)	growth inhibition of both the PKCi-resistant and parental cell lines ([1]; MP41, 7-day assay, FIG. 7B)
CC1(N)CCN(c2cccnc2NC(=O)c2nc(-c3ncccc3C(F)(F)F)cnc2N)CC1 [LXS196, reference compound]	could tolerate growth at higher concentrations					
CSCC[C@H](NC(=O)c1ccc(N)cc1)C(=O)Nc1nc(-c2cccc(-c3ccncc3)c2)cs1 [compound 17, 4-amino-N-[(1S)-3-methylsulfanyl-1-[[4-[3-(4-pyridyl)phenyl]thiazol-2-yl]carbamoyl]propyl]benzamide]		faster onset of inhibition	comparable growth inhibition			
CSCC[C@H](NC(=O)c1ccn(S(C)(=O)=O)c1)C(=O)Nc1nc(-c2cccc(-c3ccncc3)c2)cs1 [compound 18, (S)-1-(methylsulfonyl)-N-(4-(methylthio)-1-oxo-1-((4-(3-(pyridin-4-yl)phenyl)thiazol-2-yl)amino)butan-2-yl)-1H-pyrrole-3-carboxamide]		faster onset of growth inhibition	more potent effects on growth inhibition	potent growth inhibition	more sensitive	strong growth inhibition
